From ChEMBL document CHEMBL1641435, “DR396, an apoptotic DNase γ inhibitor, attenuates high mobility group box 1 release from apoptotic cells” (Bioorg Med Chem, 2011) come the findings set out here.

Activity calls are given as the source filed them. No cut-off for these calls is given here.

Assay [1] has as its target T1, Deoxyribonuclease gamma (Homo sapiens) (UniProt Q13609).
T1 sequence (whole entry): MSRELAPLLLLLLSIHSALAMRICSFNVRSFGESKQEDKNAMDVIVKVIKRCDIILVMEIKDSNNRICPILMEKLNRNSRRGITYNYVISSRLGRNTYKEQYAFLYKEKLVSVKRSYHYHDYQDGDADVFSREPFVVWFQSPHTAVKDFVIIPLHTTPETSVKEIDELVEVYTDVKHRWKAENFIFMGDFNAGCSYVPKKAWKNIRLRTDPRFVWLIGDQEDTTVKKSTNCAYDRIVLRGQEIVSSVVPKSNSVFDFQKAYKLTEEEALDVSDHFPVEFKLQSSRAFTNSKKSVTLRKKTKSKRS
Kind of assay: (§1) Inhibition of human recombinant DNase gamma expressed in Rosetta DE3 cells assessed as increase in acid soluble DNA after 30 mins. The class given is cell-based.

Assay [2] concerns the target T2, Deoxyribonuclease gamma (Homo sapiens, UniProt Q13609).
T2 sequence (Q13609 whole entry): T1 sequence (whole entry)
The assay is described as §1. It counts as cell-based.

Assay [3] concerns HeLa S3. Kind of assay: Inhibition of HMGB1 release in human staurosporine-induced HeLaS3 cells at 100 uM treated 1 hr before staurosporine challenge measured after 24 hrs by Western blotting. It counts as functional.
Assay [4] has as its target T1, Deoxyribonuclease gamma (Homo sapiens). The conditions noted are these: HeLa S3; 30 uM.
Description: Inhibition of DNase gamma-mediated nucleosomal DNA fragmentation expressed in human staurosporine-induced HeLaS3 cells at 30 uM treated 1 hr before staurosporine challenge measured after 24 hrs by Western blotting
The target in assay [5] is T2, Deoxyribonuclease gamma. Kind of assay: Inhibition of DNase gamma-mediated HMGB1 release expressed in human staurosporine-induced HeLaS3 cells treated 1 hr before staurosporine challenge measured after 24 hrs by Western blotting. On the technique in general: In western blotting, separated proteins are transferred to a membrane and probed.

For the compound `O=S(=O)(O)c1cc(O)c2c(O)c(/N=N/c3cccc4ccccc34)c(S(=O)(=O)O)cc2c1` [PONTACYL VIOLET 6R], in assay [1], the inhibition result is “Dose-dependent effect”. In assay [2], the half-inhibitory concentration (IC50) stood at 16.1 µM. In assay [3], this compound had an inhibition at 100 µM of 50%.

As to `O=C(O)c1ccc(Nc2nc(Cl)nc(Cl)n2)cc1-c1c2ccc(=O)cc-2oc2cc(O)ccc12`, the inhibition in assay [4] is 50%; in assay [1], “Dose-dependent effect”. Further, the half-inhibitory concentration (IC50) was 3.2 µM in assay [2] and 30 µM in assay [5]. Besides, in assay [3], the inhibition entry was “Active”.

For the compound `O=C(N[C@H](CC1CCCCC1)C(=O)O)OCC1c2ccccc2-c2ccccc21`, the inhibition entry in assay [1] is “Dose-dependent effect”. In addition, the IC50 in assay [2] is 34.5 µM. For the same compound, in assay [3], the inhibition at 100 µM stood at 20%.

One may read the inhibition as the drop in the measured response relative to a control, in per cent. The IC50 is the concentration that gives 50% inhibition.
